# Where two headings read alike, the source gives them in different places. Marks after values point to notes of the source that are not given here.
# Assays:
# [1] = Scavenging activity of nitric oxide (nitrite production induced by SNP, Griess reaction)
# Protocol: (§1) For the in vitro antioxidant tests the samples were emulsified in 0.05% Tween 80 dissolved in saline 0.9% (used as the vehicle) and tested at concentrations of 1, 5, 10, 25 and 100 µg/mL. The samples for the cytotoxicity tests were diluted in pure and sterile DMSO and tested at concentrations of 25 µg/mL.
# Nitric oxide was generated from spontaneous decomposition of sodium nitroprusside in 20 mM phosphate buffer (pH 7.4). Once generated, NO interacts with oxygen to produce nitrite ions, which are measured by the Griess reaction. The reaction mixture (1 mL) containing 10 mM sodium nitroprusside (SNP) in phosphate buffer and the riparins at various concentrations of 1, 5, 10, 25 and 100 µg/mL were incubated at 37 °C for 1 h. A 0.5 mL aliquot was taken and homogenized with 0.5 mL Griess reagent. The absorbance of chromophore was measured at 540 nm. Percent inhibition of generated nitric oxide was measured by comparing the absorbance values of negative controls (only 10 mM sodium nitroprusside and vehicle) to assay preparations. Results were expressed as percentage of nitrite formed by SNP alone.
# [2] = system: murine peritoneal macrophages RAW 264.7; assay: Cytotoxicity assay on RAW 264.7 (LDH release); type: cell-based
# Protocol: Murine peritoneal macrophages of the cell line RAW 264.7 were obtained from the American Type Culture Collection (ATCC, Rockville, MD, USA), and cultured at 37 °C with CO2 at 5% in DMEM-F12 supplemented with 10% fetal bovine serum (FBS; Hyclone^TM, Logan, UT, USA) and gentamicin (50 μg/mL). RAW 264.7 cells (5 × 10^5 cells/mL) were cultured and incubated for 24 h with the riparins A, B, C, D, E and F at the final concentration of 25 µg/mL […]. The cytotoxicity assay was performed by LDH assay. The release of LDH (cytoplasmic lactate dehydrogenase enzyme) was determined using 50 μL of culture supernatant with 100 μL of LDH substrate plus and 5 μL ferric alum (5 mg/mL), at 37 °C for 3 min. Then, 100 μL of the NAD solution and phenazine methosulphate were added to the mixture, maintaining the temperature at 37 °C for 5 min (Labrax Commercial Kit, Clontech, Palo Alto, CA, USA). LDH is an oxidoreductase which catalyzes the interconversion of lactate and pyruvate and, for being a stable cytosolic enzyme, after damage to cell membrane it is released in the cellular environment and because of this LDH is an indirect indicator of cytotoxicity. LDH concentration was determined by colorimetry at 492 nm. The specific release of LDH was calculated as percentage of the controls (not treated cells as negative control and cells treated with 1%Triton X-100 as positive control).
# (§2) The obtained data were evaluated by one-way analysis of variance (ANOVA) followed by a Student Newman Keuls post hoc test. The data concerning release percentage of cytoplasmatic enzyme lactate dehydrogenase (LDH) were reported by mean ± standard deviation and evaluated by one-way analysis of variance (ANOVA) followed by a Tukey post hoc test. In all cases differences were considered significant if p < 0.05, the means and respective standard errors were analyzed in the Graph Pad Prism version 5.0 for Windows software (GraphPad Software Incorporated, San Diego, CA, USA).
# [3] = Antioxidant potential against the formation of TBARS (AAPH-induced lipid peroxidation of egg yolk homogenate)
# Protocol: as §1
# The TBARS assay was employed to quantify lipid peroxidation and an adapted TBARS method was used to measure the antioxidant capacity of the riparins (Rip-A, -B, -C, -D, -E and -F) using egg yolk homogenate as lipid rich substrate. Egg yolk was homogenized (1% w/v) in 20 mM phosphate buffer (pH 7.4), 1 mL of homogenate was sonicated and then homogenized with 0.1 mL of the samples at concentrations of 1, 5, 10, 25 and 100 µg/mL. Lipid peroxidation was induced by the addition of 0.1 mL of 2,2'-azobis(2-methylpropionamidine) dihydrochloride solution (AAPH; 0.12 M). Control was evaluated with only the vehicle. Reactions were carried out for 15 minutes at 37 °C. After cooling, samples (0.5 mL) were centrifuged with 0.5 mL of trichloroacetic acid (15%) at 1,200 ×g for 10 min. An aliquot of 0.5 mL from supernatant was mixed with 0.5 mL TBA (0.67%) and heated at 95 °C for 30 min. After cooling, sample absorbance was measured using a spectrophotometer at 532 nm. The results were expressed as percentage of TBARS formed by AAPH alone (induced control).
# [4] = system: tumor cells lines (leukemia and lung and laryngeal carcinoma); assay: Cytotoxicity on tumor cell lines, summary statements over the lines (MTT); type: cell-based; conditions: Homo sapiens
# Protocol: as §1
# (§3) Cells were maintained at 37 °C with 5% CO2 in RPMI 1640 (Himedia^TM, Mumbai, India) or DMEM medium (Gibco^TM, Grand Island, NY, USA) supplemented with 2 mM glutamine, 100 U/mL penicillin, 100 μg/mL streptomycin. The antiproliferative activities of riparins were evaluated in the following human cancer cells lineage: HL-60 (pro-myelocytic leukemia), NCIH-292 (lung carcinoma), and HEP-2 (laryngeal carcinoma) obtained from the Rio de Janeiro Cell Bank (RJ-Brazil). For all experiments, 100 µL of tumor cells were plated in 96-well plates (6 × 10^4 cells/cm^2 for adherent cells or 9 × 10^4 cells/cm^2 for leukemia). Tested compounds (0.1–25 μg/mL) dissolved in 1% DMSO (100 µL) were added to each well and incubated for 72 h. Control groups received the same amount of DMSO. After 69 h of treatment, 25 μL of MTT (5 mg/mL) were added. Three hours later, the MTT formazan product was dissolved in 100 μL of DMSO, and absorbance was measured at 595 nm using a multiplate reader (Thermo Plate®, TP Reader, São Paulo, SP, Brasil).
# [5] = Hydroxyl radical scavenging activity (2-deoxyribose degradation, Fenton reaction)
# Protocol: as §1
# The formation of OH radicals from Fenton reagents was quantified using the condensation product of the 2-deoxyribose oxidative degradation product, malonaldehyde, with 2-thiobarbituric acid (TBA). Briefly, typical reactions were started by the addition of Fe^2+ (FeSO4 6 mM final concentration) to solutions containing 5 mM 2-deoxyribose, 100 mM H2O2 and 20 mM phosphate buffer (pH 7.2). In order to determine the antioxidant activity of the riparins against the hydroxyl radical, individual tests were performed on each one of the six substances, in which different concentrations of the riparins were added to the system before Fe^2+ addition (Rip-A; Rip-B; Rip-C; Rip-D; Rip-E and Rip-F). Reactions were carried out for 15 min at room temperature and were quenched by the addition of phosphoric acid 4% (v/v), followed by TBA 1% (thiobarbituric acid, v/v in 50 μL NaOH). The solutions were boiled for 15 min to 95 °C and then cooled at room temperature. The absorbance was measured at 532 nm and the results were expressed as MDA equivalents formed by Fe^2+ and H2O2 [25].
# [6] = system: NCIH-292 (lung carcinoma); assay: Cytotoxicity against tumor cell lines (MTT); type: cell-based; conditions: Homo sapiens, NCI-H292, 72 h, 95% confidence interval in brackets, read-out: IC50 values and confidence intervals, NCIH-292
# Protocol: as §3, §2
# [7] = system: HL-60 (pro-myelocytic leukemia); assay: Cytotoxicity against tumor cell lines (MTT); type: cell-based; conditions: Homo sapiens, 72 h, 95% confidence interval in brackets, read-out: IC50 values and confidence intervals, HL-60
# Protocol: as §3, §2
# [8] = 140 μg/mL (standard antioxidant)
compound,measurement,setting,value
"O=C(NCCc1ccccc1)c1c(O)cccc1O [Rip-E, 2,6-Dihydroxy-N-phenethylbenzamide]",Nitrite Production (% induced by SNP),[1]; 1 μg/mL,65.9 ± 1.30 ^a %
same,Nitrite Production (% induced by SNP),[1]; 5 μg/mL,37.7 ± 0.95 ^a %
same,Nitrite Production (% induced by SNP),[1]; 10 μg/mL,25.1 ± 1.37 ^a %
same,Nitrite Production (% induced by SNP),[1]; 25 μg/mL,20.1 ± 0.71 ^a %
same,Nitrite Production (% induced by SNP),[1]; 100 μg/mL,15.4 ± 1.11 ^a %
same,IC50 Nitrite,[1]; nitrite formation,0.5224 µg/mL
same,LDH % Release,"[2]; 25 µg/mL, RAW 264.7",96.91%
same,LDH % Release,"[2]; 25 µg/mL, RAW 264.7, listed as riparin E",greater than 80%
same,TBARS levels (% AAPH),[3]; 1 μg/mL,41.4 ± 0.69 ^a %
same,TBARS levels (% AAPH),[3]; 5 μg/mL,38.6 ± 0.63 ^a %
same,TBARS levels (% AAPH),[3]; 10 μg/mL,35.5 ± 0.37 ^a %
same,TBARS levels (% AAPH),[3]; 25 μg/mL,31.3 ± 0.76 ^a %
same,TBARS levels (% AAPH),[3]; 100 μg/mL,28.2 ± 0.39 ^a %
same,IC50 TBARS,[3]; TBARS production,0.7821 µg/mL
same,IC50,"[4]; leukemia and lung and laryngeal carcinoma, read-out: IC50 values on neoplastic cells (range over cell lines)",1.9 to 11.4 µg/mL
same,inhibition at 25 µg/mL,"[4]; tumor cells lines, cytotoxicity samples tested at 25 µg/mL, read-out: cell growth inhibition rates",> 70%
same,2-Deoxyribose degradation (%),[5]; 1 μg/mL,79.9 ± 0.64 ^a %
same,2-Deoxyribose degradation (%),[5]; 5 μg/mL,62.2 ± 2.14 ^a %
same,2-Deoxyribose degradation (%),[5]; 10 μg/mL,53.4 ± 1.79 ^a %
same,2-Deoxyribose degradation (%),[5]; 25 μg/mL,51.4 ± 1.47 ^a %
same,2-Deoxyribose degradation (%),[5]; 100 μg/mL,49.4 ± 0.85 ^a %
same,IC50 OH radical,[5]; hydroxyl radical content,1.054 µg/mL
same,melting point,,155 °C
same,IC50,[6],> 25 µg/mL
same,IC50,[7],1.9 µg/mL
"Cc1c(C)c2c(c(C)c1O)CCC(C)(C(=O)O)O2 (centres unmarked) [Trolox, reference compound]",Nitrite Production (% induced by SNP),[1]; [8],40.2 ± 2.80 ^a %
same,TBARS levels (% AAPH),[3]; [8],55.3 ± 6.48 ^a %
same,2-Deoxyribose degradation (%),[5]; [8],21.4 ± 0.95 ^a %
"Triton X-100 [Triton X-100 1%, reference compound]",LDH % Release,[2],99.96%

# Source: publication PMC6271893, “In Vitro Antioxidant and Cytotoxic Activity of Some Synthetic Riparin-Derived Compounds” (Molecules, 2014)
